# Test results published in ChEMBL document CHEMBL5726765, “5-hydroxytryptamine receptor 7 activity modulators and their method of use” (2019).
# Biological target: 5-hydroxytryptamine receptor 7 (Homo sapiens, UniProt P34969)
# Assay: A similar stock of the reference compound chlorpromazine is also prepared as a positive control. Eleven dilutions (5× assay concentration) of the compound of the disclosure and chlorpromazine are prepared in the Assay Buffer by serial dilution to yield final corresponding assay concentrations ranging from 10 pM to 10 μM.A stock concentration of 5 nM [3H]LSD (lysergic acid diethyl amide) is prepared in 50 mM Tris-HCl, 10 mM MgCl2, 1 mM EDTA, pH 7.4 (Assay Buffer). Aliquots (50 μl) of radioligand are dispensed into the wells of a 96-well plate containing 100 μl of Assay Buffer. Duplicate 50-μl aliquots of the compound of the disclosure test and chlorpromazine positive control reference compound serial dilutions are added.Membrane fractions of cells expressing recombinant 5HT7 receptors (50 μL) are dispensed into each well. […]
# Chain of 5-hydroxytryptamine receptor 7 (P34969 whole entry): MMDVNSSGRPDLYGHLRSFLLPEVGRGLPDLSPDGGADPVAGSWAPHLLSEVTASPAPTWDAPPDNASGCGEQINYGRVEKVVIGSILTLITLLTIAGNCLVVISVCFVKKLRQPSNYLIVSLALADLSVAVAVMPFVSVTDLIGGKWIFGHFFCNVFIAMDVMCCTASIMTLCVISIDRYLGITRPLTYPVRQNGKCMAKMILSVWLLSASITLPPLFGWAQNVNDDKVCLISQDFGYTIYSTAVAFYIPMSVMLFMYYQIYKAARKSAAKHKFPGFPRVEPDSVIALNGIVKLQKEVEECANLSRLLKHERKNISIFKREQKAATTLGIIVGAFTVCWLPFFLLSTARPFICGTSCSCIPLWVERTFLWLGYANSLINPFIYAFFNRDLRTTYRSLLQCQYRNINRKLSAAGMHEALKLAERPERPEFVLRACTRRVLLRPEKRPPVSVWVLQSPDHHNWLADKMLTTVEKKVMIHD
compound,measurement,value
CCC1(CC)CC(CCN2CCC(C(O)(c3ccccc3)c3ccccc3)CC2)OC1=O (stereo unspecified),IC50,3.16 µM
